In patent US20190211397A1, “INHIBITORS OF GPR132 FOR USE IN PREVENTING AND/OR TREATING CHEMOTHERAPY-INDUCED NEUROPATHIC PAIN” (Fraunhofer-Gesellschaft zur Foerderung der angewandten …, priority 2016, published 2019):
Entries after “also recorded” stand apart in the source; their conditions may differ.

What was measured:
TRPV1 = experiment: Calcium imaging of DRG neurons: TRPV1 sensitization (two capsaicin stimuli, Δratio); format: cell-based, mice
Description: DRG primary cultures were prepared as described previously (Brenneis et al., 2011 b). Briefly, twenty to thirty murine dorsal roots ganglia (DRGs) were dissected from spinal segments and transferred directly into ice-cold Hanks' balanced salt solution with CaCI2 and MgCI2 (lnvitrogen, Carlsbad, Calif., USA). The DRGs were than incubated with Neurobasal Medium (lnvitrogen, Carlsbad, Calif., USA) containing 500 U/ml collagenase (Sigma, Deisenhofen, Germany) and 2.5 U/ml dispase II (Roche, Mannheim, Germany) for 75 mins at 37° C. After removal of the collagenase/dispase-solution cells were washed three times with medium containing 10% FCS, penicillin/streptomycin/gentamycin (lnvitrogen, Carlsbad, Calif., USA) and incubated in 0.05% trypsin for 10 min at 37° C. After two washing steps, the cells were mechanically dissociated with a 1 ml pipette and plated on Poly-L-lysine (Sigma) coated coverslips. After incubation at 37° C. for 2 h, Neurobasal Medium containing glutamine (2 mm), penicillin (100 U/ml), streptomycin (100 μg/ml), B-27 and gentamicin (50 μg/ml) was added to the cells and incubated overnight. The neurons were used for Calcium imaging the next day.
Calcium-imaging experiments were performed with a Leica calcium-imaging setup, consisting of a Leica DMI 4000 b inverted microscope equipped with a DFC360 FX (CCD) camera, Fura-2 filters, and an N-Plan 10×/0.25 Ph1 objective (all from Leica), was used. Images were taken every 2 s and were processed with the LAS AF-software (Leica). For each experiment, an area with large cell numbers 24 h after preparation (see DRG primary cultures) was chosen and 40-110 cells were monitored simultaneously. Cells were loaded with 5 μM fura-2-AM-ester (Biotium), incubated for 45-60 min at 37° C. and washed with ringer solution (145 mM NaCI, 1.25 mM CaCl2, 1 mM MgCl2, 5 mM KCI, 10 mM D-glucose, and 10 mM HEPES, adjusted to pH 7.3). Baseline measurements were performed with ringer solution at a flow rate of 1-2 ml/min at room temperature. For the activation of TRPV1 we used a solution of 200 nM capsaicin (Sigma), for TRPA1 activation 50 μM allyl isothiocyanate (AITC, Fluka Analytic) and for TRPM8 100 μM L-menthol (Sigma) dissolved in ringer solution. For TRP-channel sensitization, cells were incubated for 2 mins with different concentrations (50 nM-1000 nM) of (±) 9-HODE (Cayman) or (±) 13-HODE (Cayman) before the second stimulus took place. For control stimulations, the corresponding volume of DMSO (Sigma) was mixed in ringer solution and applied with the same flow rate. 10 μM of the PKA inhibitor H89 (Tocris) or 1 μM of the PKC inhibitor GF1 09203X (Tocris) was co-incubated with fura-2 for 45 mins. As positive control for PKA activation 40 iJM 8-bromo-cAMP (Cayman) and for PKC activation 500 nM bradykinin (Cayman) was used. At the end of each measurement, 50 mM KCl was applied to identify neurons.

PKC = PKC inhibitor on TRPV1 sensitization in DRG neurons (calcium imaging); format: cell-based, mice; details: GF109203X 1 μM 45 mins, 9-HODE 200 nM
Description: (§1) DRG primary cultures were prepared as described previously (Brenneis et al., 2011 b). Briefly, twenty to thirty murine dorsal roots ganglia (DRGs) were dissected from spinal segments and transferred directly into ice-cold Hanks' balanced salt solution with CaCI2 and MgCI2 (lnvitrogen, Carlsbad, Calif., USA). The DRGs were than incubated with Neurobasal Medium (lnvitrogen, Carlsbad, Calif., USA) containing 500 U/ml collagenase (Sigma, Deisenhofen, Germany) and 2.5 U/ml dispase II (Roche, Mannheim, Germany) for 75 mins at 37° C. […]
(§2) Calcium-imaging experiments were performed with a Leica calcium-imaging setup, consisting of a Leica DMI 4000 b inverted microscope equipped with a DFC360 FX (CCD) camera, Fura-2 filters, and an N-Plan 10×/0.25 Ph1 objective (all from Leica), was used. […] For each experiment, an area with large cell numbers 24 h after preparation (see DRG primary cultures) was chosen and 40-110 cells were monitored simultaneously. […]
(§3) TRPV1 sensitization can be mediated by PKA or PKC (Schnizler et al., 2008; Bhave et al., 2003). To investigate the signaling pathway between G2A and TRPV1 in DRG neurons, we determined which protein kinases are involved in sensitization of TRPV1. […]

PKA = PKA inhibitor on TRPV1 sensitization in DRG neurons (calcium imaging); format: cell-based, mice; details: H89 10 μM 45 mins
Description: as §1, §2, §3

C57BL/6N mice = experiment: Mechanical pain thresholds of mice after oxaliplatin (dynamic plantar aesthesiometer); format: in vivo; details: oxaliplatin 3 mg/kg i.p.
From the text: In all behavioral tests the experimenter was unaware of the treatment and the genotype of the mice. For all behavioral experiments we used only 6-12 weeks old C57BU6N mice purchased from commercial breeding companies (Charles River, Sulzfeld, Germany, Janvier, Le Geneset-Saint-lsle, FR). G2A and TRPV1 knockout strains were from Jackson laboratories. All experiments followed the ethics guidelines for investigations in conscious animals and the procedures were approved by the local Ethics Committee. […]
To determine the mechanical thresholds of mice, a Dynamic Plantar Aesthesiometer (Ugo Basile, Comerio, Italy) was used. […] Therefore, a steel rod pushed against the plantar side of the hind paw with linear ascending force (0-5 g over 10 s, in 0.5 g/s intervals) until a fast withdraw of the paw was observed The time between the first contact of the steel rod and the paw withdraw was measured in seconds (paw withdraw latency) and a cut-off time of 20 s was set.
To investigate whether or not alterations in concentrations of oxidized lipids occur during oxaliplatin-induced neuropathic pain, 3 mg/kg oxaliplatin (Nassini et al., 2011) was injected i.p. in C57BL/6N mice and the paw withdrawal latency over 10 days was monitored using a dynamic plantar aesthesiometer. […]

DRGs = experiment: Real-time RT-PCR of DRGs of oxaliplatin treated mice; format: in vivo; details: lumbal DRGs, day 10 after oxaliplatin treatment
Description: Lumbar DRGs (L2-L6) were dissected, quick-frozen in liquid nitrogen and stored at −80° C. Total RNA of the DRGs was isolated under RNase-free conditions using a mirVana miRNA Isolation Kit (Ambion) according to the manufacturer's instructions and quantified with a NanoDrop ND-1000 spectrophotometer (NanoDrop Technologies). The cDNA was synthesized from 200 ng RNA using a First Strand cDNA Synthesis Kit (Thermo Scientific) according to the manufacturer's instructions. Real-time RT-PCR was performed using an ABI Prism 7500 Sequence Detection System (Applied Biosystems) using Maxima SYBR Green qPCR Master Mix ROX as well as suitable primers for CYP2C37 (Luo et al., 1998), CYP2C38 (Zhang et al., 2003), CYP2C39 (Luo et al., 1998), CYP2J6 (Choudhary et al., 2003) and CYP3A11 (Chavan et al., 2015).
For analysis of GAPDH (Mm99999915_g1), G2A (Mm02620285_s1), 5-LOX (Mm01182747 m1), 12-LOX (Mm00545833_m1), 15-LOX (Mm00507789_m1) and COX-2 (Mm03294838_g1) assay primer from ThermoFisher Scientific were used. Reactions (total volume 10 μl) were performed in triplicate by incubating at 95° C. for 10 min, followed by 40 cycles of 15 s at 95° C. and 1 min at 60° C. […] Relative expression of target gene levels was determined using the ΔΔCt method, with Ct indicating the cycle number at which the signal of the PCR product crosses a defined threshold set within the exponential phase of the PCR. […]

patients = details: cited from earlier work

CCCCCC(O)/C=C/C=C\CCCCCCCC(=O)O (stereo not drawn) [13-HODE]
sensitization of TRPV1 (Δratio of first and second capsaicin stimulus) (TRPV1; DRG neurons, lipid incubated 2 minutes before second capsaicin stimulus, 0 to 1000 nM): no strong sensitizing effect | calcium flux of second vs first capsaicin stimulus (Δratio) (TRPV1; wildtype DRG neurons, lipid 200 nM 120 s, capsaicin 200 nM 30 s): does not increase the Δratio

CN(C)CCCn1cc(C2=C(c3c[nH]c4ccccc34)C(=O)NC2=O)c2ccccc21 [GF109203X]
effect on 9-HODE-induced TRPV1 sensitization (PKC): supresses the 9-HODE-dependent sensitization of TRPV1; also recorded: prevented TRPV1 sensitization

O=S(=O)(NCCNC/C=C/c1ccc(Br)cc1)c1cccc2cnccc12 [H89]
effect on PKA-dependent TRPV1 sensitization caused by 8-bromo-cAMP (PKA; 8-bromo-cAMP 40 μM): inhibited | effect on 9-HODE-induced TRPV1 sensitization (PKA; 9-HODE 200 nM): not influenced; also recorded: failed to supress

O=C1[O][Pt]2([NH][C@@H]3CCCC[C@H]3[NH]2)[O]C1=O [oxaliplatin]
start of reduced mechanical paw withdrawal latencies (C57BL/6N mice): 4 days | mechanical paw withdrawal latencies (C57BL/6N mice; C57BL/6N mice, monitored over 10 days): significantly reduced mechanical paw withdrawal latencies | mRNA expression of CYP2J6, 5-LOX, 12-LOX, 15-LOX and COX-2 (DRGs): No difference in mRNA expression | patients in whom CIPN is induced (patients): up to 80%
